Assay results taken from PMC7377239, “Cardiovascular Effects of Polychlorinated Biphenyls and Their Major Metabolites” (Environmental Health Perspectives, 2020).
Like-named read-outs stand apart in the source and are kept apart here.

How the values were obtained:
[1] = system: iCell endothelial cells (human iPSC-derived ECs); test: High-content imaging cytotoxicity in iCell endothelial cells, 24 h; format: cell-based; conditions: for viability at 0.01 µM / activity at 0.01 µM / viability at 0.1 µM / activity at 0.1 µM / viability at 1 µM / activity at 1 µM / viability at 10 µM / activity at 10 µM / viability at 100 µM / activity at 100 µM / minimal effective concentration: Homo sapiens, Endothelial cell; for viability at 0.1 µM / activity at 0.1 µM: 0.10 µM; for effect on cell viability in iPSC-ECs: 0.01-100 μM
In short: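 Human iPSC-derived endothelial cells (passages 1–5) were grown to a fibronectin-coated monolayer, then exposed 24 h at 37 °C with 0.5% DMSO vehicle. Staining was Hoechst 33342, MitoTracker Orange and calcein AM, read by high-content imaging. Point of departure came from 4-parameter logistic fits, with a 1-SD vehicle cutoff and 100 µM as the top concentration.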

[2] = system: iCell endothelial cells (human iPSC-derived ECs); test: Tube formation (tubulogenesis) assay in iCell endothelial cells, 18 h; format: cell-based; conditions: Homo sapiens, Endothelial cell; for activity at 0.1 µM: 0.10 µM
In short: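 iCell ECs (passages 1–5) seeded 7,500 cells/well on reduced-growth-factor Geltrex in starvation medium, exposed overnight at 37°C to compounds in triplicate concentration–response (0.5% DMSO vehicle). Calcein AM staining, 4× imaging, angiogenesis image analysis; readouts normalized to vehicle, four-parameter logistic fit, POD at 1 SD of vehicle; 100 μM assigned NOAEL if no response.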

[3] = iPSC-EC, 0.00 µM = 100.00, read-out: endo.cyto.24hr
[4] = iPSC-EC, 0.00 µM = 100.00, read-out: endo.mito.24hr
[5] = iPSC-EC, 0.00 µM = 100.00, read-out: endo.mitoint.24hr
[6] = iPSC-EC, 0.00 µM = 100.00, read-out: endo.nma.24hr
[7] = iPSC-EC, 0.00 µM = 100.00, read-out: endo.tc.24hrs
[8] = iPSC-EC, 0.00 µM = 100.00, read-out: endo.mtl.18hr
[9] = iPSC-EC, 0.00 µM = 100.00, read-out: endo.tlps.18hr
[10] = iPSC-EC, 0.00 µM = 100.00, read-out: endo.tta.18hr
[11] = iPSC-EC, 0.00 µM = 100.00, read-out: endo.ttl.18hr
[12] = endothelial cells (endo), cyto, 24 hr, read-out: POD endo.cyto.24hr
[13] = endothelial cells (endo), mito, 24 hr, read-out: POD endo.mito.24hr
[14] = endothelial cells (endo), mitoint, 24 hr, read-out: POD endo.mitoint.24hr
[15] = endothelial cells (endo), nma, 24 hr, read-out: POD endo.nma.24hr
[16] = endothelial cells (endo), tc, 24 hr, read-out: POD endo.tc.24hr
[17] = endothelial cells (endo), tube formation mtl, 18 hr, read-out: POD endo.mtl.18hr
[18] = endothelial cells (endo), tube formation tlps, 18 hr, read-out: POD endo.tlps.18hr
[19] = endothelial cells (endo), tube formation tta, 18 hr, read-out: POD endo.tta.18hr
[20] = endothelial cells (endo), tube formation ttl, 18 hr, read-out: POD endo.ttl.18hr

Which results are given for `Clc1cc(Cl)c(-c2cc(Cl)c(Cl)cc2Cl)cc1Cl` [PCB153]?
viability at 0.01 µM [1, 3]: 97.6%; activity at 0.01 µM [1, 4]: 97.9%; activity at 0.01 µM [1, 5]: 86%; activity at 0.01 µM [1, 6]: 102%; viability at 0.01 µM [1, 7]: 97.6%; viability at 0.1 µM [1, 3]: 97.8%; activity at 0.1 µM [1, 4]: 98.2%; activity at 0.1 µM [1, 5]: 85.5%; activity at 0.1 µM [1, 6]: 101%; viability at 0.1 µM [1, 7]: 97.8%; viability at 1 µM [1, 3]: 103%; activity at 1 µM [1, 4]: 103%; activity at 1 µM [1, 5]: 84.3%; activity at 1 µM [1, 6]: 100%; viability at 1 µM [1, 7]: 103%; viability at 10 µM [1, 3]: 109%; activity at 10 µM [1, 4]: 110%; activity at 10 µM [1, 5]: 80.5%; activity at 10 µM [1, 6]: 98%; viability at 10 µM [1, 7]: 109%; viability at 100 µM [1, 3]: 45.5%; activity at 100 µM [1, 4]: 42%; activity at 100 µM [1, 5]: 57.6%; activity at 100 µM [1, 6]: 108%; viability at 100 µM [1, 7]: 46.4%; minimal effective concentration ([1]; iPSC-EC, 100.00 = highest concentration tested, read-out: endo.cyto.24hr POD): 18.6 µM; minimal effective concentration ([1]; iPSC-EC, 100.00 = highest concentration tested, read-out: endo.mito.24hr POD): 18.6 µM; minimal effective concentration ([1]; iPSC-EC, 100.00 = highest concentration tested, read-out: endo.mitoint.24hr POD): 0.07 µM; minimal effective concentration ([1]; iPSC-EC, 100.00 = highest concentration tested, read-out: endo.nma.24hr POD): 62.5 µM; minimal effective concentration ([1]; iPSC-EC, 100.00 = highest concentration tested, read-out: endo.tc.24hrs POD): 49.2 µM; activity at 0.01 µM [2, 8]: 121%; activity at 0.01 µM [2, 9]: 80.7%; activity at 0.01 µM [2, 10]: 103%; activity at 0.01 µM [2, 11]: 116%; activity at 0.1 µM [2, 8]: 119%; activity at 0.1 µM [2, 9]: 104%; activity at 0.1 µM [2, 10]: 124%; activity at 0.1 µM [2, 11]: 134%; activity at 1 µM [2, 8]: 122%; activity at 1 µM [2, 9]: 111%; activity at 1 µM [2, 10]: 111%; activity at 1 µM [2, 11]: 123%; activity at 10 µM [2, 8]: 135%; activity at 10 µM [2, 9]: 202%; activity at 10 µM [2, 10]: 148%; activity at 10 µM [2, 11]: 157%; activity at 100 µM [2, 8]: 55.1%; activity at 100 µM [2, 9]: 21.1%; activity at 100 µM [2, 10]: 20.2%; activity at 100 µM [2, 11]: 22.9%; minimal effective concentration ([2]; iPSC-EC, 100.00 = highest concentration tested, read-out: endo.mtl.18hr POD): 0.007 µM; minimal effective concentration ([2]; iPSC-EC, 100.00 = highest concentration tested, read-out: endo.tlps.18hr POD): 1.93 µM; minimal effective concentration ([2]; iPSC-EC, 100.00 = highest concentration tested, read-out: endo.tta.18hr POD): 3.83 µM; minimal effective concentration ([2]; iPSC-EC, 100.00 = highest concentration tested, read-out: endo.ttl.18hr POD): 0.58 µM

`Clc1ccc(-c2ccccc2)cc1` [PCB 3, 4-chlorobiphenyl] was tested. Which minimal effective concentration [1, 12] did it give?
Its minimal effective concentration is 100 µM.

What about the minimal effective concentration [1, 13] of the same molecule?
The minimal effective concentration was 100 µM.

What about the minimal effective concentration [1, 14] of the same molecule?
Its minimal effective concentration is 100 µM.

And the minimal effective concentration [1, 15]?
The minimal effective concentration was 100 µM.

What about the minimal effective concentration [1, 16] of the same molecule?
The minimal effective concentration was 100 µM.

What about the “effect on cell viability in iPSC-ECs” value [1] of the same molecule?
Its value is “did not affect cell viability”.

What about the minimal effective concentration [2, 17] of the same molecule?
The minimal effective concentration was 100 µM.

And the minimal effective concentration [2, 18]?
Its minimal effective concentration is 100 µM.

And the minimal effective concentration [2, 19]?
Its minimal effective concentration is 100 µM.

What about the minimal effective concentration [2, 20] of the same molecule?
The minimal effective concentration was 100 µM.

How did the minimal effective concentration [1, 12] turn out when `Clc1cccc(-c2cccc(Cl)c2)c1` [PCB 11, 3,3′-Dichlorobiphenyl] was run?
The minimal effective concentration was 100 µM.

What about the minimal effective concentration [1, 13] of the same molecule?
The minimal effective concentration was 100 µM.

And the minimal effective concentration [1, 14]?
The minimal effective concentration was 100 µM.

What about the minimal effective concentration [1, 15] of the same molecule?
Its minimal effective concentration is 100 µM.

What about the minimal effective concentration [1, 16] of the same molecule?
The minimal effective concentration was 100 µM.

And the “effect on cell viability in iPSC-ECs” value [1]?
The value was “did not affect cell viability”.

What about the minimal effective concentration [2, 17] of the same molecule?
The minimal effective concentration was 100 µM.

And the minimal effective concentration [2, 18]?
Its minimal effective concentration is 100 µM.

What about the minimal effective concentration [2, 19] of the same molecule?
Its minimal effective concentration is 100 µM.

What about the minimal effective concentration [2, 20] of the same molecule?
The minimal effective concentration was 100 µM.

Which minimal effective concentration [1, 12] does the source give for `Clc1ccc(Cl)c(-c2cc(Cl)ccc2Cl)c1` [PCB 52, 2,2′,5,5′-tetrachlorobiphenyl] here?
The minimal effective concentration was 100 µM.

And the minimal effective concentration [1, 13]?
The minimal effective concentration was 100 µM.

What about the minimal effective concentration [1, 14] of the same molecule?
The minimal effective concentration was 100 µM.

What about the minimal effective concentration [1, 15] of the same molecule?
Its minimal effective concentration is 100 µM.

And the minimal effective concentration [1, 16]?
The minimal effective concentration was 100 µM.

And the minimal effective concentration [2, 17]?
Its minimal effective concentration is 79.8 µM.

And the minimal effective concentration [2, 18]?
The minimal effective concentration was 100 µM.

And the minimal effective concentration [2, 19]?
Its minimal effective concentration is 100 µM.

What about the minimal effective concentration [2, 20] of the same molecule?
Its minimal effective concentration is 100 µM.

How did the minimal effective concentration [1, 12] turn out when `Clc1ccc(Cl)c(-c2c(Cl)ccc(Cl)c2Cl)c1` [PCB 95, 2,2′,3,5′,6-pentachlorobiphenyl] was run?
Its minimal effective concentration is 100 µM.

What about the minimal effective concentration [1, 13] of the same molecule?
The minimal effective concentration was 100 µM.

And the minimal effective concentration [1, 14]?
The minimal effective concentration was 100 µM.

What about the minimal effective concentration [1, 15] of the same molecule?
The minimal effective concentration was 100 µM.

What about the minimal effective concentration [1, 16] of the same molecule?
The minimal effective concentration was 100 µM.

What about the minimal effective concentration [2, 17] of the same molecule?
Its minimal effective concentration is 48.6 µM.

What about the minimal effective concentration [2, 18] of the same molecule?
The minimal effective concentration was 53.9 µM.

And the minimal effective concentration [2, 19]?
The minimal effective concentration was 48.7 µM.

And the minimal effective concentration [2, 20]?
Its minimal effective concentration is 55.7 µM.

How did the minimal effective concentration [1, 12] turn out when `Clc1ccc(-c2cc(Cl)c(Cl)c(Cl)c2)cc1Cl` [PCB 126, 3,3′,4,4′,5-pentachlorobiphenyl] was run?
Its minimal effective concentration is 0.33 µM.

And the minimal effective concentration [1, 13]?
Its minimal effective concentration is 0.33 µM.

What about the minimal effective concentration [1, 14] of the same molecule?
The minimal effective concentration was 10.2 µM.

What about the minimal effective concentration [1, 15] of the same molecule?
The minimal effective concentration was 100 µM.

What about the minimal effective concentration [1, 16] of the same molecule?
Its minimal effective concentration is 0.34 µM.

And the minimal effective concentration [2, 17]?
The minimal effective concentration was 28.1 µM.

What about the minimal effective concentration [2, 18] of the same molecule?
Its minimal effective concentration is 4.68 µM.

And the minimal effective concentration [2, 19]?
The minimal effective concentration was 25.7 µM.

What about the minimal effective concentration [2, 20] of the same molecule?
Its minimal effective concentration is 38.9 µM.
